Where “and” joins values, the source holds several entries; their conditions need not be identical. Equal values may be shown once.

What all share (type): functional, Homo sapiens
The subject of assay [1] is K562. Kind of assay: Cytotoxic activity on K-562 erythroleukemia cell line suspension in 5% foetal calf serum (FCS) at 4*10e-6 M concentration after 1 hr.
In assay [2] the test system is K562. Nature of the assay: Cytotoxic activity on K-562 erythroleukemia cell line suspension in 5% foetal calf serum (FCS) at 10e-3 M concentration after 24 hr.
The test system of assay [3] is K562. Kind of assay: Cytotoxic activity on K-562 erythroleukemia cell line suspension in 5% foetal calf serum (FCS) at 4*10e-6 M concentration after 24 hr.
Assay [4] concerns K562. Kind of assay: Cytotoxic activity on K-562 erythroleukemia cell line suspension in 5% foetal calf serum (FCS) at 10e-5 M concentration after 2 hr.
The test system of assay [5] is K562. Nature of the assay: Cytotoxic activity on K-562 erythroleukemia cell line suspension in 5% foetal calf serum (FCS) at 4*10e-4 M concentration after 1 hr.
For assay [6], the system named is K562. Kind of assay: Cytotoxic activity on K-562 erythroleukemia cell line suspension in 5% foetal calf serum (FCS) at 4*10e-4 M concentration after 24 hr.
For assay [7], the system named is K562. Nature of the assay: Cytotoxic activity on K-562 erythroleukemia cell line suspension in 5% foetal calf serum (FCS) at 10e-6 M concentration after 1 hr.
For assay [8], the system named is K562. Nature of the assay: Cytotoxic activity on K-562 erythroleukemia cell line suspension in 5% foetal calf serum (FCS) at 10e-3 M concentration after 1 hr.
Assay [9] has as its system K562. Kind of assay: Cytotoxic activity on K-562 erythroleukemia cell line suspension in 5% foetal calf serum (FCS) at 10e-5 M concentration after 1 hr.
For assay [10], the system named is K562. Kind of assay: Cytotoxic activity on K-562 erythroleukemia cell line suspension in 5% foetal calf serum (FCS) at 4*10e-5 M concentration after 24 hr.
Assay [11] concerns K562. Nature of the assay: Cytotoxic activity on K-562 erythroleukemia cell line suspension in 5% foetal calf serum (FCS) at 10e-4 M concentration after 1 hr.
Assay [12] relates to K562. Kind of assay: Cytotoxic activity on K-562 erythroleukemia cell line suspension in 5% foetal calf serum (FCS) at 10e-4 M concentration after 2 hr.
For assay [13], the system named is K562. Nature of the assay: Cytotoxic activity on K-562 erythroleukemia cell line suspension in 5% foetal calf serum (FCS) at 10e-5 M concentration after 24 hr.
For assay [14], the system named is K562. Kind of assay: Cytotoxic activity on K-562 erythroleukemia cell line suspension in 5% foetal calf serum (FCS) at 10e-3 M concentration after 2 hr.
The test system of assay [15] is K562. Kind of assay: Cytotoxic activity on K-562 erythroleukemia cell line suspension in 5% foetal calf serum (FCS) at 4*10e-5 M concentration after 1 hr.
In assay [16] the test system is K562. Kind of assay: Cytotoxic activity on K-562 erythroleukemia cell line suspension in 5% foetal calf serum (FCS) at 10e-6 M concentration after 24 hr.
For assay [17], the system named is K562. Kind of assay: Cytotoxic activity on K-562 erythroleukemia cell line suspension in 5% foetal calf serum (FCS) at 4*10e-6 M concentration after 2 hr.
Assay [18] relates to K562. Nature of the assay: Cytotoxic activity on K-562 erythroleukemia cell line suspension in 5% foetal calf serum (FCS) at 4*10e-5 M concentration after 2 hr.
Assay [19] relates to K562. Nature of the assay: Cytotoxic activity on K-562 erythroleukemia cell line suspension in 5% foetal calf serum (FCS) at 10e-4 M concentration after 24 hr.
Assay [20] has as its system K562. Nature of the assay: Cytotoxic activity on K-562 erythroleukemia cell line suspension in 5% foetal calf serum (FCS) at 10e-6 M concentration after 2 hr.

Consider `CCCCCCCCCCCCCCCCCCSP(O)(=S)O[C@@H]1[C@@H](O)[C@H](O)[C@@H](O)[C@H](O)[C@@H]1O` (stereo not given in full), for which the Dead cells in the assay on K562 [1] was 13.3%; in the assay with K562 [2] it was 96.2%; with K562 [3], 22.5%; in the assay on K562 [4], 16.6%; with K562 [5] it was 48.2%; with K562 [6], 71.1%. The Dead cells amounted to 14% in the assay with K562 [7]; 48.9% with K562 [8]; 13.3% in the assay with K562 [9]; 24.4% in the assay on K562 [10]; 18.4% in the assay on K562 [11]; 22.7% with K562 [12]. Besides, the Dead cells in the assay with K562 [13] was 23.3%; in the assay with K562 [14], 52.52%; with K562 [15] it was 15.5%; in the assay on K562 [16] it was 27.2%; with K562 [17], 16.8% and 45.9%; in the assay on K562 [18], 17%. Moreover, the Dead cells in the assay with K562 [19] was determined as 40%; in the assay with K562 [20] it was 18.2%.

The values above are taken from ChEMBL document CHEMBL1127106, “Synthesis and cytotoxic activity of () octadecylphosphodithionyl-1-myo-inositol” (1993).
